Our source for the IC50 values is US9216999B2, “Substituted pyrrolo[2,3-h][1,6]naphthyridines and compositions thereof as JAK inhibitors” (priority 2011, dated 2015).

Holding throughout (assay type): biochemical
Holding throughout (conditions): ATP 100 μM

The target of assay [1] is JAK1 (Homo sapiens (Human), UniProt P23458). The assay can be described thus: Enzyme assay (Assay Example^a 1), JAK1.
Assay [2] has as its target JAK2 (Homo sapiens (Human), UniProt O60674). The assay can be described thus: Enzyme assay (Assay Example^a 1), JAK2.
Assay [3] concerns the target JAK3 (Homo sapiens (Human), UniProt P52333). The assay can be described thus: Enzyme assay (Assay Example^a 1), JAK3.
For assay [4], the target named is Tyk2 (Homo sapiens (Human), UniProt P29597). Description: Enzyme assay (Assay Example^a 1), Tyk2.
Chain of Tyk2 (P29597 whole entry): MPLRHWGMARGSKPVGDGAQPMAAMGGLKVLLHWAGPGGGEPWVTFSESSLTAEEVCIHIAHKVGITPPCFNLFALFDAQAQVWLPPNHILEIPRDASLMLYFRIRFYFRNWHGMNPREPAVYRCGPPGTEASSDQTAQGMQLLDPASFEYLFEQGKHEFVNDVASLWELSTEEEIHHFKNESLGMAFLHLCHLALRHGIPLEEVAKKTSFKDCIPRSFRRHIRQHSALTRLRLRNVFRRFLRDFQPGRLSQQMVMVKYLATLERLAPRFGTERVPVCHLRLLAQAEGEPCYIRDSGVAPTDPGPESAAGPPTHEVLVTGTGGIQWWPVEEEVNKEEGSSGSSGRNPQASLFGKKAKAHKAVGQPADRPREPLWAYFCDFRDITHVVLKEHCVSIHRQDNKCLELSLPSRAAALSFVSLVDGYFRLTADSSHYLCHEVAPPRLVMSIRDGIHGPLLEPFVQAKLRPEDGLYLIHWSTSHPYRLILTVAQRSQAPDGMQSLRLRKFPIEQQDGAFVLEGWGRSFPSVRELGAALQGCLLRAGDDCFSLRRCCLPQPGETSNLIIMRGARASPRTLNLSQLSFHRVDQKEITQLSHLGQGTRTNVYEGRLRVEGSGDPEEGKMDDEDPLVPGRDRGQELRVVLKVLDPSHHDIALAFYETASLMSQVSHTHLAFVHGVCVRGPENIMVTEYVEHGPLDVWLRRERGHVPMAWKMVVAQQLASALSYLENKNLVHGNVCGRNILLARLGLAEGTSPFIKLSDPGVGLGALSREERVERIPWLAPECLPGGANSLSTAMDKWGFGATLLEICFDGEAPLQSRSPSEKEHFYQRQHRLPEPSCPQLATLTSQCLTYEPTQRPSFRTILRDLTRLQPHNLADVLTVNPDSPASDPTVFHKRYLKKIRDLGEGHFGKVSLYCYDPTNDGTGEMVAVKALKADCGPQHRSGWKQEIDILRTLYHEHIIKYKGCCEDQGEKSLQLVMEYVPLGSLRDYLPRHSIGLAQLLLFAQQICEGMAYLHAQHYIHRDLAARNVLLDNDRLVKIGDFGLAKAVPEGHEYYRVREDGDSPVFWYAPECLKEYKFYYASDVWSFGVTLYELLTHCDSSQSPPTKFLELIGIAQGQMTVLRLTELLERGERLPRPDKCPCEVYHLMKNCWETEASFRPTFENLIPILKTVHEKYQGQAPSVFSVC

Chain of JAK3 (P52333 whole entry): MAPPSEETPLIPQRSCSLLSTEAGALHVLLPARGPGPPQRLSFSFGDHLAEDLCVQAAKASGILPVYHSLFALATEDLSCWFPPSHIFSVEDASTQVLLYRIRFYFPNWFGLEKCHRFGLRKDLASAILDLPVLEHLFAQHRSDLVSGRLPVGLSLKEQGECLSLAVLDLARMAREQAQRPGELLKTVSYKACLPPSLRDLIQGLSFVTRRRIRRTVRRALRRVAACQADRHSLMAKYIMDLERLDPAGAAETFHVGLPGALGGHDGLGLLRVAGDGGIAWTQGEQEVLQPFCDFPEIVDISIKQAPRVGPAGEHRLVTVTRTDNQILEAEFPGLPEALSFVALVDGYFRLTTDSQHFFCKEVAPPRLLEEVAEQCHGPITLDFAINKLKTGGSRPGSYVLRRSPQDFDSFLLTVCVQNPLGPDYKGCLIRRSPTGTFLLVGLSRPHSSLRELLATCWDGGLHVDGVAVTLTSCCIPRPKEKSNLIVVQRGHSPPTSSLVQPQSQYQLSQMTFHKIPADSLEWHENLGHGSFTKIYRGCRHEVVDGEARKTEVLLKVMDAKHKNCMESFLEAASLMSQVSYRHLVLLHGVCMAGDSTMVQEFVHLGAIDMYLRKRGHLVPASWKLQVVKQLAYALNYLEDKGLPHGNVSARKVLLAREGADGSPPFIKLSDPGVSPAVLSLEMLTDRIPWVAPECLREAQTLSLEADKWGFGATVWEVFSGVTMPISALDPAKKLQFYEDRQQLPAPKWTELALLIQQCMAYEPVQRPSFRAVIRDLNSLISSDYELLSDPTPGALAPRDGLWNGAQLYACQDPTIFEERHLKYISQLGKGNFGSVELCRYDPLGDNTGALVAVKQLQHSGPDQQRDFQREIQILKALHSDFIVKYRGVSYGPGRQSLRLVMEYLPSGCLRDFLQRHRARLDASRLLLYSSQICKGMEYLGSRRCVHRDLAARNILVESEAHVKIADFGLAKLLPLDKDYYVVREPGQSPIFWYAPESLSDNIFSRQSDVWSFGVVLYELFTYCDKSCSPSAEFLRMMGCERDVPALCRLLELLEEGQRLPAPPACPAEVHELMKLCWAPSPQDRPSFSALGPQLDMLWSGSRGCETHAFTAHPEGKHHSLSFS

By IC50 is commonly meant the concentration at which inhibition is half-maximal. High values mean weaker potency in that assay, low ones greater potency in that assay. Consider `N#CC1CN(C[C@H]2CC[C@H](c3nnn4cnc5[nH]ccc5c34)CC2)C1` [compound 281, 1-{[trans-4-(7H-pyrrolo[3,2-e][1,2,3]triazolo[1,5-c]pyrimidin-1-yl)cyclohexyl]methyl}azetidine-3-carbonitrile], for which the IC50 in assay [1] was 0.0077 µM; in assay [2] it was 0.05 µM; in assay [3], 0.15 µM; in assay [4], 0.48 µM.
For `N#Cc1ccc(CCNC[C@H]2CC[C@H](c3nnn4cnc5[nH]ccc5c34)CC2)cc1` [compound 282, 4-[2-({[trans-4-(7H-pyrrolo[3,2-e][1,2,3]triazolo[1,5-c]pyrimidin-1-yl)cyclohexyl]methyl}amino)ethyl]benzonitrile], in that order: 0.0052 µM, 0.07 µM, 0.39 µM and 0.08 µM.
For the compound `c1cc2c(ncn3nnc([C@H]4CC[C@H](CNC5CCC5)CC4)c23)[nH]1` [compound 283, N-{[trans-4-(7H-pyrrolo[3,2-e][1,2,3]triazolo[1,5-c]pyrimidin-1-yl)cyclohexyl]methyl}cyclobutanamine], the IC50 stood at 0.014 µM in assay [1], 0.11 µM in assay [2], 0.9 µM in assay [3] and 0.23 µM in assay [4].
The matching figures for `c1cc2c(ncn3nnc([C@H]4CC[C@H](CNC5CCCC5)CC4)c23)[nH]1` [compound 284, N-{[trans-4-(7H-pyrrolo[3,2-e][1,2,3]triazolo[1,5-c]pyrimidin-1-yl)cyclohexyl]methyl}cyclopentanamine]: 0.017 µM, 0.15 µM, greater than 1 µM and 0.32 µM.
For the compound `c1cc2c(ncn3nnc([C@H]4CC[C@H](CNCC5CC5)CC4)c23)[nH]1` [compound 285, 1-[trans-4-(7H-pyrrolo[3,2-e][1,2,3]triazolo[1,5-c]pyrimidin-1-yl)cyclohexyl]-N-(cyclopropylmethyl)methanamine], the IC50 in assay [1] was found to be 0.0091 µM; in assay [2] it was 0.12 µM; in assay [3] it was 0.61 µM; in assay [4] it was 0.068 µM.
For `c1cc2c(ncn3nnc([C@H]4CC[C@H](CN5CCC5)CC4)c23)[nH]1` [compound 286, 1-[trans-4-(azetidin-1-ylmethyl)cyclohexyl]-7H-pyrrolo[3,2-e][1,2,3]triazolo[1,5-c]pyrimidine], in that order: 0.0059 µM, 0.035 µM, 0.57 µM and 0.23 µM.
Regarding `c1cc2c(ncn3nnc([C@H]4CC[C@H](CN5CCCC5)CC4)c23)[nH]1` [compound 287, 1-[trans-4-(pyrrolidin-1-ylmethyl)cyclohexyl]-7H-pyrrolo[3,2-e][1,2,3]triazolo[1,5-c]pyrimidine], the IC50 was 0.0065 µM in assay [1], 0.077 µM in assay [2], greater than 1 µM in assay [3] and 0.33 µM in assay [4].
For `CC1CC1NC[C@H]1CC[C@H](c2nnn3cnc4[nH]ccc4c23)CC1` (stereo partly drawn) [compound 291, N-{[trans-4-(7H-pyrrolo[3,2-e][1,2,3]triazolo[1,5-c]pyrimidin-1-yl)cyclohexyl]methyl}-2-methylcyclopropanamine], the IC50 in assay [1] came to 0.0053 µM; in assay [2] it was 0.1 µM; in assay [3] it was 0.67 µM; in assay [4] it was 0.14 µM.
Regarding `FC(F)(F)C1(NC[C@H]2CC[C@H](c3nnn4cnc5[nH]ccc5c34)CC2)CC1` [compound 292, N-{[trans-4-(7H-pyrrolo[3,2-e][1,2,3]triazolo[1,5-c]pyrimidin-1-yl)cyclohexyl]methyl}-1-(trifluoromethyl)cyclopropanamine], the IC50 in assay [1] is 0.0027 µM; in assay [2], 0.017 µM; in assay [3] it was 0.39 µM; in assay [4] it was 0.27 µM.
